From US20260053171A1, “METHANOGEN INHIBITORS” (AGRIZERONZ LIMITED PARTNERSHIP, priority 2022, published 2026)

Tested on: methane production in rumen fluid
Test: Rumen in vitro (RIV) assay, methane production from rumen fluid incubations
Type: cell-based, cattle
Settings: Bos taurus, read-out: RIV % methane reduction +/− SD
In short: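 Rumen fluid from two fistulated cattle diluted 12 ml in 48 ml buffer with ryegrass substrate, incubated in sealed bottles at 39° C for 24-48 h in duplicate. Inhibitors added in DMF (stocks 1000-fold above highest assay level); total gas, methane and H2 measured automatically; 30 μM BES positive control, no-inhibitor negative control.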

Row | SMILES | inhibition at 2 µM [%] | inhibition at 10 µM [%] | inhibition at 50 µM [%]
1 | O=C(CCC(=O)N1N=C(c2cccc(-c3ccccc3)c2)CC1c1ccc2nccnc2c1)NS(=O)(=O)c1ccccc1 (centres unmarked) [Compound 122, 4-(3-([1,1′-Biphenyl]-3-yl)-5-(quinoxalin-6-yl)-4,5-dihydro-1H-pyrazol-1-yl)-4-oxo-N-(phenylsulfonyl) butanamide] | 7.4 ± 4.7 | 78.9 ± 2.3 | –
2 | O=C(O)CCC(=O)N1N=C(c2ccc(Cl)cc2)CC1c1ccc2nonc2c1 (centres unmarked) [Compound 35, 4-(5-(Benzo[c][1,2,5]oxadiazol-5-yl)-3-(4-chlorophenyl)-4,5-dihydro-1H-pyrazol-1-yl)-4-oxobutanoic acid] | – | 43.6 ± 6.6 | 91.3 ± 2.1
3 | O=C(O)CCC(=O)N1N=C(c2ccc(-c3ccccc3)cc2)CC1c1ccc2c(c1)OCCO2 (centres unmarked) [Compound 40, 4-(3-([1,1′-Biphenyl]-4-yl)-5-(2,3-dihydrobenzo[b][1,4]dioxin-6-yl)-4,5-dihydro-1H-pyrazol-1-yl)-4-oxobutanoic acid] | – | 39.8 ± 1.3 | 89.5 ± 1.4
4 | Cc1ccc(-c2ccc(C3=NN(C(=O)CCC(=O)O)C(c4ccc5nccnc5c4)C3)cc2)cc1 (centres unmarked) [Compound 23, 4-(3-(4′-Methyl-[1,1′-biphenyl]-4-yl)-5-(quinoxalin-6-yl)-4,5-dihydro-1H-pyrazol-1-yl)-4-oxobutanoic acid] | – | 69 ± 3.7 | 94.8 ± 0.4
5 | COc1ccc(C2CC(c3ccc(Cl)cc3)=NN2C(=O)CCC(=O)O)cc1OC (centres unmarked) [Compound 43, 4-(3-(4-Chlorophenyl)-5-(3,4-dimethoxyphenyl)-4,5-dihydro-1H-pyrazol-1-yl)-4-oxobutanoic acid] | – | – | 39.7 ± 7.2
6 | O=C(O)CCC(=O)N1N=C(c2ccc(Cl)cc2)CC1c1ccc2c(c1)OCCO2 (centres unmarked) [Compound 39, 4-(3-(4-Chlorophenyl)-5-(2,3-dihydrobenzo[b][1,4]dioxin-6-yl)-4,5-dihydro-1H-pyrazol-1-yl)-4-oxobutanoic acid] | – | 20 ± 5.1 | 79.2
7 | CSc1ccc(C2=NN(C(=O)CCC(=O)O)C(c3ccc4nccnc4c3)C2)cc1 (centres unmarked) [Compound 62] | – | – | 31.8
8 | O=C(O)CCC(=O)N1N=C(c2ccc(-c3ccccc3)cc2F)CC1c1ccc2nccnc2c1 (centres unmarked) [Compound 109, 4-(3-(3-Fluoro-[1,1′-biphenyl]-4-yl)-5-(quinoxalin-6-yl)-4,5-dihydro-1H-pyrazol-1-yl)-4-oxobutanoic acid] | – | 40.4 ± 8.1 | –
9 | CN(C)S(=O)(=O)NC(=O)CCC(=O)N1N=C(c2ccc(Cl)cc2)CC1c1ccc2nccnc2c1 (centres unmarked) [Compound 59, 4-(3-(4-Chlorophenyl)-5-(quinoxalin-6-yl)-4,5-dihydro-1H-pyrazol-1-yl)-N—(N,N-dimethylsulfamoyl)-4-oxobutanamide] | 10.6 ± 2.5 | 86.7 ± 7 | 94.4 ± 4
10 | O=C(O)CCC(=O)N1N=C(c2ccc(-c3cccnc3)cc2)CC1c1ccc2nccnc2c1 (centres unmarked) [Compound 30, 4-Oxo-4-(3-(4-(pyridin-3-yl)phenyl)-5-(quinoxalin-6-yl)-4,5-dihydro-1H-pyrazol-1-yl)butanoic acid] | – | – | 9.3 ± 2.8
11 | O=C(O)CCC(=O)N1N=C(c2ccc(Cl)cc2)CC1c1cccc2nccnc12 (centres unmarked) [Compound 33, 4-(3-(4-Chlorophenyl)-5-(quinoxalin-5-yl)-4,5-dihydro-1H-pyrazol-1-yl)-4-oxobutanoic acid] | – | – | 18.4 ± 3.7
12 | O=C(O)c1cccc(N2N=C(c3ccc(-c4ccccc4)cc3)CC2c2ccc3nccnc3c2)c1 (centres unmarked) [Compound 61, 3-(3-([1,1′-Biphenyl]-4-yl)-5-(quinoxalin-6-yl)-4,5-dihydro-1H-pyrazol-1-yl)benzoic acid] | 13.1 | 88.3 ± 0.9 | 95.9 ± 0.6
13 | O=C(O)CCC(=O)N1N=C(c2ccc(Cl)cc2)CC1c1ccc2nsnc2c1 (centres unmarked) [Compound 36, 4-(5-(Benzo[c][1,2,5]thiadiazol-5-yl)-3-(4-chlorophenyl)-4,5-dihydro-1H-pyrazol-1-yl)-4-oxobutanoic acid] | – | 33.4 ± 2.3 | 91.3 ± 0.2
14 | O=C(O)CCC(=O)N1N=C(c2ccc(-c3cc(F)cc(F)c3)cc2)CC1c1ccc2nccnc2c1 (centres unmarked) [Compound 66, 4-(3-(3′,5′-Difluoro-[1,1′-biphenyl]-4-yl)-5-(quinoxalin-6-yl)-4,5-dihydro-1H-pyrazol-1-yl)-4-oxobutanoic acid] | 17.5 | 85.4 | –
15 | CN(C)S(=O)(=O)NC(=O)CCC(=O)N1N=C(c2cccc(-c3ccccc3)c2)CC1c1ccc2nccnc2c1 (centres unmarked) [Compound 127, 4-(3-([1,1′-Biphenyl]-3-yl)-5-(quinoxalin-6-yl)-4,5-dihydro-1H-pyrazol-1-yl)-N—(N,N-dimethylsulfamoyl)-4-oxobutanamide] | 16.8 ± 0.7 | 84.1 ± 3 | –
16 | O=C(O)CCC(=O)N1N=C(c2ccc(-c3ccc(OCC(F)(F)F)cc3)cc2)CC1c1ccc2nccnc2c1 (centres unmarked) [Compound 92, 4-Oxo-4-(5-(quinoxalin-6-yl)-3-(4′-(2,2,2-trifluoroethoxy)-[1,1′-biphenyl]-4-yl)-4,5-dihydro-1H-pyrazol-1-yl)butanoic acid] | 32.1 ± 0.8 | 81.4 ± 3.1 | –

Row | SMILES | inhibition at 2 µM [%] | inhibition at 10 µM [%] | inhibition at 50 µM [%]
17 | O=C(O)CCC(=O)N1N=C(c2ccc(-c3ccc(OC(F)(F)F)cc3)cc2)CC1c1ccc2nccnc2c1 (centres unmarked) [Compound 22, 4-Oxo-4-(5-(quinoxalin-6-yl)-3-(4′-(trifluoromethoxy)-[1,1′-biphenyl]-4-yl)-4,5-dihydro-1H-pyrazol-1-yl)butanoic acid] | 23.8 ± 1.1 | 85.1 ± 0.8 | 94.7 ± 0.8
18 | O=C(O)CCC(=O)N1N=C(c2ccc(-c3ccccc3)c(F)c2)CC1c1ccc2nccnc2c1 (centres unmarked) [Compound 110, 4-(3-(2-Fluoro-[1,1′-biphenyl]-4-yl)-5-(quinoxalin-6-yl)-4,5-dihydro-1H-pyrazol-1-yl)-4-oxobutanoic acid] | – | 40.4 ± 7.6 | –
19 | O=C(O)CCC(=O)N1N=C(c2ccc(C(F)(F)F)cc2)CC1c1ccc2nccnc2c1 (centres unmarked) [Compound 5, 4-Oxo-4-(5-(quinoxalin-6-yl)-3-(4-(trifluoromethyl)phenyl)-4,5-dihydro-1H-pyrazol-1-yl)butanoic acid] | – | – | 46.5 ± 2.7
20 | O=C(O)CCC(=O)N1N=C(c2ccc(-c3ccc4[nH]ccc4c3)cc2)CC1c1ccc2nccnc2c1 (centres unmarked) [Compound 106, 4-(3-(4-(1H-Indol-5-yl)phenyl)-5-(quinoxalin-6-yl)-4,5-dihydro-1H-pyrazol-1-yl)-4-oxobutanoic acid] | – | < 5 | 26 ± 2.5
21 | COc1cccc(C2CC(c3ccc(Cl)cc3)=NN2C(=O)CCC(=O)O)c1 (centres unmarked) [Compound 41, 4-(3-(4-Chlorophenyl)-5-(3-methoxyphenyl)-4,5-dihydro-1H-pyrazol-1-yl)-4-oxobutanoic acid] | – | – | 13.4 ± 3.2
22 | O=C(O)CCC(=O)N1N=C(c2ccc(-c3ccc(C(F)(F)F)cc3)cc2)CC1c1ccc2nccnc2c1 (centres unmarked) [Compound 20, 4-Oxo-4-(5-(quinoxalin-6-yl)-3-(4′-(trifluoromethyl)-[1,1′-biphenyl]-4-yl)-4,5-dihydro-1H-pyrazol-1-yl)butanoic acid] | – | 37.2 ± 5.9 | –
23 | NC(=O)CCC(=O)N1N=C(c2ccc(Cl)cc2)CC1c1ccc2nccnc2c1 (centres unmarked) [Compound 113, 4-(3-(4-Chlorophenyl)-5-(quinoxalin-6-yl)-4,5-dihydro-1H-pyrazol-1-yl)-4-oxobutanamide] | – | – | 15.6 ± 0.4
24 | CS(=O)(=O)NC(=O)CCC(=O)N1N=C(c2ccc(OC(F)(F)F)cc2)CC1c1ccc2nccnc2c1 (centres unmarked) [Compound 56] | < 5 | 72.4 ± 10.6 | 98.6
25 | CC(C)c1ccc(C2=NN(C(=O)CCC(=O)O)C(c3ccc4nccnc4c3)C2)cc1 (centres unmarked) [Compound 3, 4-(3-(4-Isopropylphenyl)-5-(quinoxalin-6-yl)-4,5-dihydro-1H-pyrazol-1-yl)-4-oxobutanoic acid] | – | 5.5 ± 2.8 | 78.6 ± 1.1
26 | CC(C)S(=O)(=O)NC(=O)CCC(=O)N1N=C(c2ccc(OC(F)(F)F)cc2)CC1c1ccc2nccnc2c1 (centres unmarked) [Compound 118, N-(Isopropylsulfonyl)-4-oxo-4-(5-(quinoxalin-6-yl)-3-(4-(trifluoromethoxy)phenyl)-4,5-dihydro-1H-pyrazol-1-yl) butanamide] | – | 29.7 ± 6 | –
27 | O=C(O)CCC(=O)N1N=C(c2ccc(-c3ccc4c(c3)OC(F)(F)O4)cc2)CC1c1ccc2nccnc2c1 (centres unmarked) [Compound 104, 4-(3-(4-(2,2-Difluorobenzo[d][1,3]dioxol-5-yl)phenyl)-5-(quinoxalin-6-yl)-4,5-dihydro-1H-pyrazol-1-yl)-4-oxobutanoic acid] | – | 41.9 ± 8.9 | –
28 | O=C(O)CCC(=O)N1N=C2c3cccc(-c4ccccc4)c3CCC2C1c1ccc2nccnc2c1 (centres unmarked) [Compound 129, 4-Oxo-4-(6-phenyl-3-(quinoxalin-6-yl)-3,3a,4,5-tetrahydro-2H-benzo[g]indazol-2-yl)butanoic acid] | – | 42.5 ± 15.8 | –
29 | O=C(O)CCC(=O)N1N=C(c2ccc(-c3ccccc3)cc2)CC1c1ccc2nonc2c1 (centres unmarked) [Compound 111, 4-(3-([1,1′-Biphenyl]-4-yl)-5-(benzo[c][1,2,5]oxadiazol-5-yl)-4,5-dihydro-1H-pyrazol-1-yl)-4-oxobutanoic acid] | – | 43.3 ± 9 | –
30 | O=C(O)CCC(=O)N1N=C(c2ccc(-c3ccc(OC4CCCC4)cc3)cc2)CC1c1ccc2nccnc2c1 (centres unmarked) [Compound 85, 4-(3-(4′-(Cyclopentyloxy)-[1,1′-biphenyl]-4-yl)-5-(quinoxalin-6-yl)-4,5-dihydro-1H-pyrazol-1-yl)-4-oxobutanoic acid] | 17.9 ± 7.3 | 71.8 ± 4.5 | –
31 | Cc1ccc(C2=NN(C(=O)CCC(=O)O)C(c3ccc4nccnc4c3)C2)cc1 (centres unmarked) [Compound 2] | – | – | 13.9
32 | COc1ccc(-c2ccc(C3=NN(C(=O)CCC(=O)O)C(c4ccc5nccnc5c4)C3)cc2)cc1 (centres unmarked) [Compound 25, 4-(3-(4′-Methoxy-[1,1′-biphenyl]-4-yl)-5-(quinoxalin-6-yl)-4,5-dihydro-1H-pyrazol-1-yl)-4-oxobutanoic acid] | < 5 | 83.7 ± 0.4 | –
